Like-named read-outs stand apart in the source and are kept apart here.
Experiments:
Assay in all cases: Kinase binding screen
Details in all cases: read-out: Percent Control at 100 nM Compound Concentration
MLK1 = MLK1 (Homo sapiens (Human), UniProt P80192)
TRKC = TRKC (Homo sapiens (Human), UniProt Q16288)
IKK-beta = IKK-beta (Homo sapiens (Human), UniProt O14920)
CSF1R-autoinhibited = CSF1R-autoinhibited (Homo sapiens (Human), UniProt P07333)
PCTK3 = PCTK3 (Homo sapiens (Human), UniProt Q07002)
FGFR3(G697C) = FGFR3(G697C) (Homo sapiens (Human), UniProt P22607, G697C)
PCTK2 = PCTK2 (Homo sapiens (Human), UniProt Q00537)
ACVR1 = ACVR1 (Homo sapiens (Human), UniProt Q04771)
PIM2 = PIM2 (Homo sapiens (Human), UniProt Q9P1W9)
MLK3 = MLK3 (Homo sapiens (Human), UniProt Q16584)
TNK1 = TNK1 (Homo sapiens (Human), UniProt Q13470)
LATS2 = LATS2 (Homo sapiens (Human), UniProt Q9NRM7)
CHEK2 = CHEK2 (Homo sapiens (Human), UniProt O96017)
MET = MET (Homo sapiens (Human), UniProt P08581)
ITK = ITK (Homo sapiens (Human), UniProt Q08881)
MARK3 = MARK3 (Homo sapiens (Human), UniProt P27448)
EGFR(L747-T751del,Sins) = EGFR(L747-T751del,Sins) (Homo sapiens (Human), UniProt P00533, DEL747-751/INS746S)
SRPK3 = SRPK3 (Homo sapiens (Human), UniProt Q9UPE1)
WEE2 = WEE2 (Homo sapiens (Human), UniProt P0C1S8)
WNK1 = WNK1 (Homo sapiens (Human), UniProt Q9H4A3)
CLK3 = CLK3 (Homo sapiens (Human), UniProt P49761)
PDGFRA = PDGFRA (Homo sapiens (Human), UniProt P16234)
NEK6 = NEK6 (Homo sapiens (Human), UniProt Q9HC98)
AKT3 = AKT3 (Homo sapiens (Human), UniProt Q9Y243)
MY03B = MY03B (Homo sapiens (Human), UniProt Q8WXR4)
IKK-epsilon = IKK-epsilon (Homo sapiens (Human), UniProt Q14164)
YANK3 = YANK3 (Homo sapiens (Human), UniProt Q86UX6)
CDK11 = CDK11 (Homo sapiens (Human), UniProt Q9BWU1)
PIP5K2C = PIP5K2C (Homo sapiens (Human), UniProt Q8TBX8)

MLK3, sequence (Q16584 whole entry): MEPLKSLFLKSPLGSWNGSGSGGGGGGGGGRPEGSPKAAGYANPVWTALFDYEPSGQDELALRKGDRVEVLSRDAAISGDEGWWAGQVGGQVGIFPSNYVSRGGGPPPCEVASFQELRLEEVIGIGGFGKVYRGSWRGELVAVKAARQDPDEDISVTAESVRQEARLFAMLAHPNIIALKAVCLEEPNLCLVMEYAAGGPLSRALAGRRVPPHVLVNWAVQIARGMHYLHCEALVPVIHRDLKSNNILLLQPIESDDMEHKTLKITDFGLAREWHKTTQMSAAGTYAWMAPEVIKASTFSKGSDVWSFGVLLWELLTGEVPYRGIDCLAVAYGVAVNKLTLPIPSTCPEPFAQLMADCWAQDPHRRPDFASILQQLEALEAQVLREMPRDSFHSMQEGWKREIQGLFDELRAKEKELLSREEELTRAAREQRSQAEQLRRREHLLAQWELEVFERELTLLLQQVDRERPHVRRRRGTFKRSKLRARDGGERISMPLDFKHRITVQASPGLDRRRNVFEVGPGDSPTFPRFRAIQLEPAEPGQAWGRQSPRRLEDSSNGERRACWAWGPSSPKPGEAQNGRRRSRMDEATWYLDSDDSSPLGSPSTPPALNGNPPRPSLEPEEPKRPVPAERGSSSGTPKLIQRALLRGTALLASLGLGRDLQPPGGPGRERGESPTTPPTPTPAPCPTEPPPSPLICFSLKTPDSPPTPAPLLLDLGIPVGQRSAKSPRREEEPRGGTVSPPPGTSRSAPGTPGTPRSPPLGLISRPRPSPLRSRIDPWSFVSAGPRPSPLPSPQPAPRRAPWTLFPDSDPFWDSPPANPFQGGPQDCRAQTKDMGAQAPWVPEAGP
AKT3, sequence (Q9Y243 whole entry): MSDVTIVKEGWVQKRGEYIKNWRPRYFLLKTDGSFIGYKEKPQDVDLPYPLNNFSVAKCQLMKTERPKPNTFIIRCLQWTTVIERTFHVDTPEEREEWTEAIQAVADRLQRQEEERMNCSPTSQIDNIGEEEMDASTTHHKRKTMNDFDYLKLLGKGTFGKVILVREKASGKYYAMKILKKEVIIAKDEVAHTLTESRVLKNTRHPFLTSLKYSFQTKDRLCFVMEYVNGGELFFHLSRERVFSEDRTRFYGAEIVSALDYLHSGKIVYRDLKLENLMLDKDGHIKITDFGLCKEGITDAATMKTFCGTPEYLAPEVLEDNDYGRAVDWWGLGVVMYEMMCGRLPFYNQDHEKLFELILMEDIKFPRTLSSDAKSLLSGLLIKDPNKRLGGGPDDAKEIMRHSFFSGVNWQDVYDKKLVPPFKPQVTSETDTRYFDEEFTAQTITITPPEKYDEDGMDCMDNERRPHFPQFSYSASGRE
FGFR3(G697C), sequence (P22607 23-806 G697C): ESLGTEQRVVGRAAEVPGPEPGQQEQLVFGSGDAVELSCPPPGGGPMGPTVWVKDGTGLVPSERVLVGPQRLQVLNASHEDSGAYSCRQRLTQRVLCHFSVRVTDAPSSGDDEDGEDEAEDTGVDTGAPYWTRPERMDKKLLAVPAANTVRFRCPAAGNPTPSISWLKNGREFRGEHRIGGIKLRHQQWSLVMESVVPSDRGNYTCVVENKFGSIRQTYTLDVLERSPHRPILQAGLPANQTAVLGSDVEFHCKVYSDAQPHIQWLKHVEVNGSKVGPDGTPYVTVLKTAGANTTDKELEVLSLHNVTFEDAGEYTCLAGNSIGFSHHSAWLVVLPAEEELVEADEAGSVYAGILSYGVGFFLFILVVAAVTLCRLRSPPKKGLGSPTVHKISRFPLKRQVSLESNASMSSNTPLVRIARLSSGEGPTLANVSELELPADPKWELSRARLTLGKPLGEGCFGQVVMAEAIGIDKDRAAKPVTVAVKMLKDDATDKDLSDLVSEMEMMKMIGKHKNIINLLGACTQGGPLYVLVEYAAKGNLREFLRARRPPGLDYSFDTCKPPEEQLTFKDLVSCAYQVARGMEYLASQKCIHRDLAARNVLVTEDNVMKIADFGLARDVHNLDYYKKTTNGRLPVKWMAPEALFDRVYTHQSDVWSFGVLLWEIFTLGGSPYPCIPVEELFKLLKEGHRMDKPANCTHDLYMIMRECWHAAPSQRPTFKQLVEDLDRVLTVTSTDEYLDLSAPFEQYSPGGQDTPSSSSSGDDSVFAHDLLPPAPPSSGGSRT
EGFR(L747-T751del,Sins), sequence (P00533 other isoform, or with tags, fused parts or gaps del 1-668/ins S behind 746/del 747-751/del 1012-1210 limits assumed): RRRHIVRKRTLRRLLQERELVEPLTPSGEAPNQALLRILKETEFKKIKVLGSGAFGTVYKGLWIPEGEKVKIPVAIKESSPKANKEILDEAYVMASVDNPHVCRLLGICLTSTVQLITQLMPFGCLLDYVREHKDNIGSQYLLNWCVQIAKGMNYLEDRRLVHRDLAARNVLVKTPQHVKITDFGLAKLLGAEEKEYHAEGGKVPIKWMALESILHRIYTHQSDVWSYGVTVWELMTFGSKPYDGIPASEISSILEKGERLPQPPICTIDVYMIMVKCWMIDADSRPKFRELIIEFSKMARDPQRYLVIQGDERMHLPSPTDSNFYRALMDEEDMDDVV
CLK3, sequence (P49761 whole entry): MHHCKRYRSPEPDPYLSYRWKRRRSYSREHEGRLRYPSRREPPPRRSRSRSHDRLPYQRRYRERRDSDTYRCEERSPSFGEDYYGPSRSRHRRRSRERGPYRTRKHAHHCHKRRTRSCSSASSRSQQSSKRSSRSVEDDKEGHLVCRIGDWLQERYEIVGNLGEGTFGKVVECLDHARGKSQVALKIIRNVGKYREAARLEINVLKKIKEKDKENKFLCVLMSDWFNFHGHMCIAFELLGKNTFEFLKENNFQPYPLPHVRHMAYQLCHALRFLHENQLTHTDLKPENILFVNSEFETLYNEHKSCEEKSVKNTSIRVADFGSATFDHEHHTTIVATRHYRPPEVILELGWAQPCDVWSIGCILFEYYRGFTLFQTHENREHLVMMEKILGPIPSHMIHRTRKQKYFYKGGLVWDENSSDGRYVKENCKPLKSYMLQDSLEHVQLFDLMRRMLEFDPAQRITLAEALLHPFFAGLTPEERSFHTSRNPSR
ITK, sequence (Q08881 whole entry): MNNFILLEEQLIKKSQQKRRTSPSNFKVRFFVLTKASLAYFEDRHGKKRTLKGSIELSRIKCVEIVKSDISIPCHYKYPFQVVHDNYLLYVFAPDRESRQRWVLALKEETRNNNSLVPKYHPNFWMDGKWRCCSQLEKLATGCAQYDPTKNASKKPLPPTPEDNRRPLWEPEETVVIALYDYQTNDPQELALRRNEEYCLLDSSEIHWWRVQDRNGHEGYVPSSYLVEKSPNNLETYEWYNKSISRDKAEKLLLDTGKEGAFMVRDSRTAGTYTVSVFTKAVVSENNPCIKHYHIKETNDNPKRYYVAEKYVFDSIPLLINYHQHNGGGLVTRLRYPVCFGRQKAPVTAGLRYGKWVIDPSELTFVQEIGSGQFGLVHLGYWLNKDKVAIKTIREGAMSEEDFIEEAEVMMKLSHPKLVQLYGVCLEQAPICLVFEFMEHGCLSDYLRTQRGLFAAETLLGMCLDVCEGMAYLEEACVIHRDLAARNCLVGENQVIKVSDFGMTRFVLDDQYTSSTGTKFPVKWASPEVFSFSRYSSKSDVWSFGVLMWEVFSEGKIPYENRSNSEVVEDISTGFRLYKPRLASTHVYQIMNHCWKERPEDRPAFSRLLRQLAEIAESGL
YANK3, sequence (Q86UX6 whole entry): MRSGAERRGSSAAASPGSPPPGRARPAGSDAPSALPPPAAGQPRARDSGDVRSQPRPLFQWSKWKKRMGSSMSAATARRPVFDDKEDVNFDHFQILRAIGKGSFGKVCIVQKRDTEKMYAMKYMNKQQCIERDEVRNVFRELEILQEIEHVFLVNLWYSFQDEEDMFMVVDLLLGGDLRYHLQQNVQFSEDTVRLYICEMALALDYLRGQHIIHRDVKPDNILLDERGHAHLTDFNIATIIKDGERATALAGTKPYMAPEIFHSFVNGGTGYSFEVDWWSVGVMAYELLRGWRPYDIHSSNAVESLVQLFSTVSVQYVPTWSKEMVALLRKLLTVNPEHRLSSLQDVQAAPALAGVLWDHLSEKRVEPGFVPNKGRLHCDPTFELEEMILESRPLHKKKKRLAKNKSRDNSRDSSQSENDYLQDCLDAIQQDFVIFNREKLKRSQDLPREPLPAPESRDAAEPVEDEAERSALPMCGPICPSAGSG
PIM2, sequence (Q9P1W9 whole entry): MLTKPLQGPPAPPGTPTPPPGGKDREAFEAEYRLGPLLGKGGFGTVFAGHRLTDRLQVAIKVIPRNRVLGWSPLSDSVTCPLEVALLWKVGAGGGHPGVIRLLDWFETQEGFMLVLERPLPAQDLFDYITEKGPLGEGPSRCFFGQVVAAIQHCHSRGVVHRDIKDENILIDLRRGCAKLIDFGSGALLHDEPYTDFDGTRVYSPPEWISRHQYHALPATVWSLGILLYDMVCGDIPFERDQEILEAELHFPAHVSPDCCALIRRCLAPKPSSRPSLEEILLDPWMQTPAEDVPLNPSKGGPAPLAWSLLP
TNK1, sequence (Q13470 whole entry): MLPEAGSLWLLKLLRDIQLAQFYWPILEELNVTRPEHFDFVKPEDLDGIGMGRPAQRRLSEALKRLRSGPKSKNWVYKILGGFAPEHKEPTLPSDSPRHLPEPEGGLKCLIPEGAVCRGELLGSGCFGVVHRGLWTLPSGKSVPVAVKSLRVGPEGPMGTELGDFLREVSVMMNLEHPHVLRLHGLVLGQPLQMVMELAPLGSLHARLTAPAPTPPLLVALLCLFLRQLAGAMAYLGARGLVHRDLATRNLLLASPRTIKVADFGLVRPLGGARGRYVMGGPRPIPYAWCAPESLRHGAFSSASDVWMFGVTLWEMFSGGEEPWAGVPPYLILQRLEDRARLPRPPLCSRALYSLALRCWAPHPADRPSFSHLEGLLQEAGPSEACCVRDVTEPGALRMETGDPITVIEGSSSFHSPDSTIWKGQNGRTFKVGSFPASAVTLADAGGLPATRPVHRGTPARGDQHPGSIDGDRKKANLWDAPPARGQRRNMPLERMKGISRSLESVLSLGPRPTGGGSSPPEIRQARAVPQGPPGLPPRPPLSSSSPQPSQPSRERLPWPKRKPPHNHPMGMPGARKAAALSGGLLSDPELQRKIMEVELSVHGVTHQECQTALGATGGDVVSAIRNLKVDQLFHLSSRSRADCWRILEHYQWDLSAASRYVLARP

## CN(C[C@@H](O)Cc1ccccc1)C(=O)c1cncc(C#Cc2cnn(C(F)F)c2)c1 [Example 2, (S)-5-((1-(difluoromethyl)-1H-pyrazol-4-yl)ethynyl)-N-(2-hydroxy-3-phenylpropyl)-N-methylnicotinamide]
MLK1; MLK1
  remaining activity at 0.1 µM: 100%
TRKC; TRKC
  remaining activity at 0.1 µM: 100%
IKK-beta; IKK-beta
  remaining activity at 0.1 µM: 96%
CSF1R-autoinhibited; CSF1R-autoinhibited
  remaining activity at 0.1 µM: 99%
PCTK3; PCTK3
  remaining activity at 0.1 µM: 100%
FGFR3(G697C); FGFR3(G697C)
  remaining activity at 0.1 µM: 100%
PCTK2; PCTK2
  remaining activity at 0.1 µM: 100%
ACVR1; ACVR1
  remaining activity at 0.1 µM: 100%
PIM2; PIM2
  remaining activity at 0.1 µM: 95%
MLK3; MLK3
  remaining activity at 0.1 µM: 95%
TNK1; TNK1
  remaining activity at 0.1 µM: 100%
LATS2; LATS2
  remaining activity at 0.1 µM: 98%
CHEK2; CHEK2
  remaining activity at 0.1 µM: 100%
MET; MET
  remaining activity at 0.1 µM: 100%
ITK; ITK
  remaining activity at 0.1 µM: 99%
MARK3; MARK3
  remaining activity at 0.1 µM: 98%
EGFR(L747-T751del,Sins); EGFR(L747-T751del,Sins)
  remaining activity at 0.1 µM: 100%
SRPK3; SRPK3
  remaining activity at 0.1 µM: 90%
WEE2; WEE2
  remaining activity at 0.1 µM: 100%
WNK1; WNK1
  remaining activity at 0.1 µM: 93%
CLK3; CLK3
  remaining activity at 0.1 µM: 97%
PDGFRA; PDGFRA
  remaining activity at 0.1 µM: 73%
NEK6; NEK6
  remaining activity at 0.1 µM: 100%
AKT3; AKT3
  remaining activity at 0.1 µM: 100%
MY03B; MY03B
  remaining activity at 0.1 µM: 95%
IKK-epsilon; IKK-epsilon
  remaining activity at 0.1 µM: 100%
YANK3; YANK3
  remaining activity at 0.1 µM: 67%
CDK11; CDK11
  remaining activity at 0.1 µM: 4.8%
PIP5K2C; PIP5K2C
  remaining activity at 0.1 µM: 63%

## CN(C[C@H](Cc1ccccc1)OP(=O)(O)O)C(=O)c1cncc(C#Cc2cnn(C(F)F)c2)c1 [Example 19, (S)-1-(5-((1-(difluoromethyl)-1H-pyrazol-4-yl)ethynyl)-N-methylnicotinamido)-3-phenylpropan-2-yl dihydrogen phosphate]
MLK1
  remaining activity at 0.1 µM: 96%
TRKC
  remaining activity at 0.1 µM: 68%
IKK-beta
  remaining activity at 0.1 µM: 96%
CSF1R-autoinhibited
  remaining activity at 0.1 µM: 99%
PCTK3
  remaining activity at 0.1 µM: 100%
FGFR3(G697C)
  remaining activity at 0.1 µM: 100%
PCTK2
  remaining activity at 0.1 µM: 100%
ACVR1
  remaining activity at 0.1 µM: 100%
PIM2
  remaining activity at 0.1 µM: 100%
MLK3
  remaining activity at 0.1 µM: 89%
TNK1
  remaining activity at 0.1 µM: 100%
LATS2
  remaining activity at 0.1 µM: 100%
CHEK2
  remaining activity at 0.1 µM: 100%
MET
  remaining activity at 0.1 µM: 100%
ITK
  remaining activity at 0.1 µM: 100%
MARK3
  remaining activity at 0.1 µM: 97%
EGFR(L747-T751del,Sins)
  remaining activity at 0.1 µM: 79%
SRPK3
  remaining activity at 0.1 µM: 100%
WEE2
  remaining activity at 0.1 µM: 100%
WNK1
  remaining activity at 0.1 µM: 94%
CLK3
  remaining activity at 0.1 µM: 93%
PDGFRA
  remaining activity at 0.1 µM: 85%
NEK6
  remaining activity at 0.1 µM: 100%
AKT3
  remaining activity at 0.1 µM: 100%
MY03B
  remaining activity at 0.1 µM: 79%
IKK-epsilon
  remaining activity at 0.1 µM: 94%
YANK3
  remaining activity at 0.1 µM: 54%
CDK11
  remaining activity at 0.1 µM: 92%
PIP5K2C
  remaining activity at 0.1 µM: 74%
